Results from patent US20210405025A1, “IDENTIFYING COMPOUNDS FOR TREATING CANCER AND USE THEREOF” (THE UAB RESEARCH FOUNDATION, priority 2018, published 2021).
Read-outs that look alike come from different tables or passages of the source.

Tests used:
relapsed AML cells = assay: Drug sensitivity assay, 1,536-well, 3-day culture with individual approved drugs at 10 μM, viability by alamarBlue; format: cell-based, human; details: number of relapsed AML cases out of 18 tested with >70% cell death; 10 μM, 3-day culture
How it was run: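 FACS-sorted viable myeloid blasts from thawed AML samples, 4,000-4,500 cells per 5 μL well, cultured in IMDM with 15% BIT, SCF, FLT3L, IL-3, G-CSF. Drugs added per well; after three days percentage of live cells measured to gauge killing.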

[1] = read-out: In vivo cMax; plasma concentration achievable in vivo at the FDA-recommended dose and schedule; cited from earlier work
AML patient samples = assay: 10-point dose-response drug screen of statins against AML patient samples, 3-day drug sensitivity assay; format: cell-based, human; details: for statin-mediated killing: highly sensitive cases 285, 340 and 290, result in words; for IC50: 3-day assay
Description: Drug sensitivity assays were performed using a 1,536-well platform where all cells and reagents were deposited in wells using an acoustic liquid handling unit that is highly accurate for dispensing of nanoliter volumes of liquid. […] After dispensing the cells into the wells, an independent drug at a known concentration is added to each well and incubated with the cells. After three days, the percentage of live cells in each well is determined to assess the killing efficiency of each compound. […] Cell viability assays are known to those of skill in the art. See, for example, Pemovska et al., Individualized systems medicine strategy to tailor treatments for patients with chemorefractory acute myeloid leukemia. Cancer Discovery 3:1416-1429, 2013; Pabst et al., Identification of small molecules that support human leukemia stem cell activity ex vivo. Nature Methods 11:436-442, 2014; Baccelli et al., A novel approach for the identification of efficient combination therapies in primary human acute myeloid leukemia specimens. Blood Cancer Journal 7:e529, 2017. In studies described herein, the 1,536-well format was utilized, which allowed for use of four times fewer cells as well as less drug and media components due to the small assay volume of 5 microliters. […] Other compounds like CellTiter-Glo (Promega, Madison, Wis.) are equally appropriate reagents for determining cell viability.
Conditions for the drug screening assays were as described in Pabst et al., Identification of small molecules that support human leukemia stem cell activity ex vivo, Nature Methods 11:436-442, 2014). Using this protocol, cells were cultured in Iscove's Modified Dulbecco's Medium (IMDM), 15% BIT (bovine serum albumin, insulin, transferrin; Stem Cell Technologies 09500 (Vancouver, Calif.)), 100 ng/ml SCF (Shenandoah 100-04 (Warwick, Pa.)), 50 ng/ml FLT3L (Shenandoah 100-21), 20 ng/ml IL-3 (Shenandoah 100-80), 20 ng/ml G-CSF (Shenandoah 100-72), 10^-4 M β-mercaptoethanol, gentamicin (50 μg/ml) and ciprofloxacin (10 μg/ml).
Cells were removed from liquid nitrogen and placed in a 37° C. bath, just until thawed. For 1,536-well screens utilizing 6,000 wells about 100 million cells were thawed. The volume was doubled with pre-warmed culture media and placed on ice for about one to two minutes. The cells were brought to a final volume of about 8 to 10 mL before spinning down at 1,100 rpm for 5 min at 10° C. The pelleted cells were resuspended in 10 mL of culture media and plated in a tissue-culture treated T75 flask at a density of 1 to 2 million cells/ml. The cells were cultured overnight prior to fluorescence-activated cell sorting of viable cells on the following day.
After cells were cultured overnight, a cell scraper was used to remove any cells that adhered to the plastic. The cells were gently pipetted up and down to break up aggregates. Then, the entire volume was transferred to a 50 mL conical tube through a 70 micron cell strainer to remove cell clumps. The T75 flask was rinsed and scraped with about 10 mL HBSS and transferred to the same 50 mL conical tube through the strainer. The harvested cells were spun down at 1,100 rpm for 5 min at 10° C. The cells were then resuspendd in about 300-500 microliters FACS buffer (HBSS+2% FBS+1× propidium iodide) and transferred to a FACS tube. The tube was placed on ice and viable cells that are forward- and side-scatter gated on viable myeloid blasts were sorted by FACS (the scatter gate should exclude small lymphocytes, large myeloid cells, and debris). After sorting the required number of viable cells, the cells were spun down at 1,100 rpm for 5 min at 10° C. and subsequently resuspended at 4,000-4,500 cells per 5 microliter volume of complete culture media with growth factors and penicillin/streptomycin.

[2] = target: cGMP-inhibited phosphodiesterase (PDE3); details: cited from earlier work
[3] = patient sample AML 280, read-out: IC50 AML 280
[4] = patient sample AML 285, read-out: IC50 AML 285
[5] = patient sample AML 290, read-out: IC50 AML 290
[6] = patient sample AML 297, read-out: IC50 AML 297
[7] = patient sample AML 299, read-out: IC50 AML 299
[8] = patient sample AML 307, read-out: IC50 AML 307
[9] = patient sample AML 330, read-out: IC50 AML 330
[10] = patient sample AML 339, read-out: IC50 AML 339
[11] = patient sample AML 340, read-out: IC50 AML 340
[12] = patient sample AML 343, read-out: IC50 AML 343
[13] = Homo sapiens, 72 h, patient sample AML 280, read-out: IC50 AML 280
[14] = Homo sapiens, 72 h, patient sample AML 285, read-out: IC50 AML 285
[15] = Homo sapiens, 72 h, patient sample AML 290, read-out: IC50 AML 290
[16] = Homo sapiens, 72 h, patient sample AML 297, read-out: IC50 AML 297
[17] = Homo sapiens, 72 h, patient sample AML 299, read-out: IC50 AML 299
[18] = Homo sapiens, 72 h, patient sample AML 307, read-out: IC50 AML 307
[19] = Homo sapiens, 72 h, patient sample AML 330, read-out: IC50 AML 330
[20] = Homo sapiens, 72 h, patient sample AML 339, read-out: IC50 AML 339
[21] = Homo sapiens, 72 h, patient sample AML 340, read-out: IC50 AML 340
[22] = Homo sapiens, 72 h, patient sample AML 343, read-out: IC50 AML 343

Which results are given for `O=C([O-])C[C@H](O)C[C@H](O)/C=C/c1c(C2CC2)nc2ccccc2c1-c1ccc(F)cc1.O=C([O-])C[C@H](O)C[C@H](O)/C=C/c1c(C2CC2)nc2ccccc2c1-c1ccc(F)cc1.[Ca+2]` [PITAVASTATIN CALCIUM]?
#Cases >70% cell death (relapsed AML cells): 13; Cmax [1]: 250 nM; statin-mediated killing (AML patient samples): most significant activity; IC50 (AML patient samples; [3]): 1350 nM; IC50 (AML patient samples; [4]): 157 nM; IC50 (AML patient samples; [5]): 149 nM; IC50 (AML patient samples; [6]): > 10000 nM; IC50 (AML patient samples; [7]): 1810 nM; IC50 (AML patient samples; [8]): 726 nM; IC50 (AML patient samples; [9]): 9830 nM; IC50 (AML patient samples; [10]): 5240 nM; IC50 (AML patient samples; [11]): 475 nM; IC50 (AML patient samples; [12]): > 10000 nM

For `COc1cc2c(cc1OC)-c1c/c(=N\c3c(C)cc(C)cc3C)n(C)c(=O)n1CC2.Cl` [TREQUINSINçHCL], which “#Cases >70% cell death” value (relapsed AML cells) is on record?
The value was 1.

What about the IC50 [2] of the same compound?
The IC50 was 0.25 nM.

Which results are given for `CC(C)c1nc(N(C)S(C)(=O)=O)nc(-c2ccc(F)cc2)c1/C=C/[C@@H](O)C[C@@H](O)CC(=O)[O-].CC(C)c1nc(N(C)S(C)(=O)=O)nc(-c2ccc(F)cc2)c1/C=C/[C@@H](O)C[C@@H](O)CC(=O)[O-].[Ca+2]` [ROSUVASTATIN CALCIUM (Crestor), ROSUVASTATIN CALCIUM]?
#Cases >70% cell death (relapsed AML cells): 9; IC50 (AML patient samples; [3]): 8350 nM; IC50 (AML patient samples; [4]): 1470 nM; IC50 (AML patient samples; [5]): 1460 nM; IC50 (AML patient samples; [6]): > 10000 nM; IC50 (AML patient samples; [7]): > 10000 nM; IC50 (AML patient samples; [8]): 3790 nM; IC50 (AML patient samples; [9]): > 10000 nM; IC50 (AML patient samples; [10]): > 10000 nM; IC50 (AML patient samples; [11]): 2520 nM; IC50 (AML patient samples; [12]): > 10000 nM

What does the source list for `CC[C@H](C)C(=O)O[C@H]1C[C@@H](C)C=C2C=C[C@H](C)[C@H](CC[C@@H]3C[C@@H](O)CC(=O)O3)[C@H]21` [LOVASTATIN]?
#Cases >70% cell death (relapsed AML cells): 2; IC50 (AML patient samples; [13]): > 10000 nM; IC50 (AML patient samples; [14]): 3810 nM; IC50 (AML patient samples; [15]): 4400 nM; IC50 (AML patient samples; [16]): > 10000 nM; IC50 (AML patient samples; [17]): > 10000 nM; IC50 (AML patient samples; [18]): > 10000 nM; IC50 (AML patient samples; [19]): > 10000 nM; IC50 (AML patient samples; [20]): > 10000 nM; IC50 (AML patient samples; [21]): 8920 nM; IC50 (AML patient samples; [22]): > 10000 nM

What does the source list for `CC(C)n1c(/C=C/C(O)CC(O)CC(=O)O)c(-c2ccc(F)cc2)c2ccccc21` (stereo not shown) [FLUVASTATIN]?
#Cases >70% cell death (relapsed AML cells): 7; Cmax [1]: 490 nM; IC50 (AML patient samples; [13]): 2420 nM; IC50 (AML patient samples; [14]): 426 nM; IC50 (AML patient samples; [15]): 417 nM; IC50 (AML patient samples; [16]): > 10000 nM; IC50 (AML patient samples; [17]): 3810 nM; IC50 (AML patient samples; [18]): 1580 nM; IC50 (AML patient samples; [19]): > 10000 nM; IC50 (AML patient samples; [20]): 7790 nM; IC50 (AML patient samples; [21]): 721 nM; IC50 (AML patient samples; [22]): > 10000 nM

For `CC(C)c1c(C(=O)Nc2ccccc2)c(-c2ccccc2)c(-c2ccc(F)cc2)n1CC[C@@H](O)C[C@@H](O)CC(=O)[O-].CC(C)c1c(C(=O)Nc2ccccc2)c(-c2ccccc2)c(-c2ccc(F)cc2)n1CC[C@@H](O)C[C@@H](O)CC(=O)[O-].[Ca+2]` [ATORVASTATIN CALCIUM], which “#Cases >70% cell death” value (relapsed AML cells) is on record?
Its value is 12.

And the statin-mediated killing (AML patient samples)?
Its statin-mediated killing is “most significant activity”.

And the IC50 (AML patient samples; [3])?
The IC50 was 2240 nM.

And the IC50 (AML patient samples; [4])?
Its IC50 is 475 nM.

And the IC50 (AML patient samples; [5])?
Its IC50 is 584 nM.

And the IC50 (AML patient samples; [6])?
The IC50 was > 10000 nM.

And the IC50 (AML patient samples; [7])?
The IC50 was 2900 nM.

What about the IC50 (AML patient samples; [8]) of the same compound?
The IC50 was 1090 nM.

And the IC50 (AML patient samples; [9])?
Its IC50 is > 10000 nM.

And the IC50 (AML patient samples; [10])?
The IC50 was 9120 nM.

What about the IC50 (AML patient samples; [11]) of the same compound?
Its IC50 is 732 nM.

What about the IC50 (AML patient samples; [12]) of the same compound?
Its IC50 is > 10000 nM.
